Reference: ChEMBL document CHEMBL2007661, “Compounds: GSK PKIS; Assays: UNC Frye lab” (2012)
Several values for one entry are separate records, joined by “and”; a condition that tells them apart may be missing. Identical values can stand only once.

Columns and labels:
[1] = target: T1, Inhibitor of nuclear factor kappa-B kinase subunit epsilon (Homo sapiens) (UniProt Q14164); details: at 1 µM
T1 sequence (whole entry): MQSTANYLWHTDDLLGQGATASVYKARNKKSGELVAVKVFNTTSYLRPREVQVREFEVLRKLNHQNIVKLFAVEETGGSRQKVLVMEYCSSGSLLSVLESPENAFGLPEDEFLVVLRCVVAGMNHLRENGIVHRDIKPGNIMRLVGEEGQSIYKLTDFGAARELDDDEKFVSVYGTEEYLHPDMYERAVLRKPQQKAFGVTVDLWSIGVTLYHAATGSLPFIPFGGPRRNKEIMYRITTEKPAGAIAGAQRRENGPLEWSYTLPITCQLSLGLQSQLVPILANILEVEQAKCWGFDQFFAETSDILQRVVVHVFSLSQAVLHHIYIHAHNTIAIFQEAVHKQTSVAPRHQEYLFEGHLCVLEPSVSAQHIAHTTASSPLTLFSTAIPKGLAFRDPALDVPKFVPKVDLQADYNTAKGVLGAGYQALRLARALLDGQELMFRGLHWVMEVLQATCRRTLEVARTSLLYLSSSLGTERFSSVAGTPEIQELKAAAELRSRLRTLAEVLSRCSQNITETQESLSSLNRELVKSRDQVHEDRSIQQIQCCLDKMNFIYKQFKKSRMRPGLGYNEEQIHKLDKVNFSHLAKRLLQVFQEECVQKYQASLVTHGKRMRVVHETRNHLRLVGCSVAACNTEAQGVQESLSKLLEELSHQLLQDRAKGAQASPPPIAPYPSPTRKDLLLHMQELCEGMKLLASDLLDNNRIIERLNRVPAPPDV

[2] = target: T2, Inhibitor of nuclear factor kappa-B kinase subunit beta (Homo sapiens) (UniProt O14920); details: at 1 µM
T2 sequence (whole entry): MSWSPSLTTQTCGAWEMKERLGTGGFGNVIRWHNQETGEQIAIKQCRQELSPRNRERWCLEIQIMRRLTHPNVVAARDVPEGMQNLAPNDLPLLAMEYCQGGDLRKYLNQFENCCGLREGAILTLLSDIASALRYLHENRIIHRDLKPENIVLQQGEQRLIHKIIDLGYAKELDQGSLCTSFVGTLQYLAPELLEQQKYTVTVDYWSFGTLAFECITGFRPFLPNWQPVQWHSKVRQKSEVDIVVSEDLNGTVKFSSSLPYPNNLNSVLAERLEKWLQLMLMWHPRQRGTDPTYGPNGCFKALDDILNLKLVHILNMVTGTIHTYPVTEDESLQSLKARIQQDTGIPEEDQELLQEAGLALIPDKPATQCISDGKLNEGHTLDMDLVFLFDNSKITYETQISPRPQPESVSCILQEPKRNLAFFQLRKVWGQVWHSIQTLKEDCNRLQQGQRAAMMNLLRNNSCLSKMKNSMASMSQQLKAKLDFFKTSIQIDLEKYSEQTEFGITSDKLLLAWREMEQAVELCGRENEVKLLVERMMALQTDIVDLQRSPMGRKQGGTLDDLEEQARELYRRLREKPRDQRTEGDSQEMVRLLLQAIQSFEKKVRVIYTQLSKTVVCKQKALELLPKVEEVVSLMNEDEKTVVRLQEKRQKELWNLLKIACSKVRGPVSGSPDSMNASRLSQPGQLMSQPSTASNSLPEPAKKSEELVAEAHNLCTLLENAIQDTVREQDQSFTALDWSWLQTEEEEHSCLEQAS

Compound	inhibition [1]	inhibition [2]
CN(C)c1ccc2c(c1)/C(=C/Nc1ccc(S(N)(=O)=O)cc1)C(=O)N2	37% and 36%	-3%
O=C1NC(=O)C(c2ccccc2Cl)=C1Nc1cccc(O)c1	1% and 3%	-6% and -2%
COc1ccc2cc(-c3c(-c4ccncc4)nc(-c4ccc(S(C)(=O)=O)cc4C)n3C)ccc2c1	1% and 2%	-2%
O=C1NC(=O)C(c2cccc(Cl)c2)=C1Nc1ccc(O)c(Cl)c1	16% and 15%	-6% and -9%
CNC(=O)Oc1cc(C)c(/C=C/c2cncc(C(=O)NC)c2)c(C)c1	-1%	1% and -3%
CCCN1CCCC(c2ccc(Nc3nc(Nc4cc(F)ccc4C(N)=O)c4cc[nH]c4n3)c(OC)c2)C1 (centres undefined)	11% and 9%	-1% and 1%
CC1=C(C(=O)Nc2ccc3[nH]ncc3c2)C(c2ccc(F)cc2)NC(=O)N1 (centres undefined)	2%	4% and -2%
O=C(Nc1n[nH]c2nc(-c3ccc(O)cc3)c(Br)cc12)C1CC1	4% and 6%	-4% and -2%
O=C1Nc2ccccc2/C1=C/Nc1ccc(-n2cncn2)cc1	18%	-5% and -4%
Cc1cc(O)cc(C)c1/C=C/c1cncc(C(N)=O)c1	-2%	-5% and -4%
O=C1Nc2ccc(I)cc2C1=Cc1cc(Br)c(O)c(Br)c1	3% and 2%	0%
Cc1cc(O)cc(C)c1/C=C/c1cncc(-c2nn[nH]n2)c1	2%	-4% and -5%
COc1ccc2c(-c3ccnc(Nc4cccc(OC(F)(F)F)c4)n3)cnn2n1	44% and 43%	-3% and -2%
COc1ccc(CNC(=O)c2ccc(-c3cc(-c4nnc(C)o4)ccc3C)cc2)cc1	-3%	-2% and -3%
CN(C)c1cc2c(Nc3ccc4nc(Cc5ccccc5)[nH]c4c3)ncnc2cn1	0% and 6%	-2% and -3%
COc1cccc(-n2ncc3c(N/N=C/c4ccncc4)ncnc32)c1	6% and 4%	-2%
FC(F)(F)c1cccc(-c2nn3ncccc3c2-c2ccnc(Nc3ccc4c(c3)OCCO4)n2)c1	3% and 0%	-3% and -2%
ON=C1CCc2cc(-c3nc(C4CCNCC4)[nH]c3-c3ccncc3)ccc21	1% and 4%	6% and 3%
CS(=O)(=O)CCNCc1nc(-c2ccc3ncnc(Nc4ccc(F)c(Cl)c4)c3c2)cs1	-3% and -1%	-2% and -3%
NC(=O)c1cccc(Nc2nccc(Nc3cccc4[nH]ncc34)n2)c1	41% and 42%	-2% and 2%
CCS(=O)(=O)c1ccc(OC)c(Nc2ncc(-c3ccccc3Cl)o2)c1	2% and 1%	-7% and -4%

Compound	inhibition [1]	inhibition [2]
CCOc1ccc2c(-c3ccnc(Nc4cccc(C(F)(F)F)c4)n3)cnn2n1	45%	-3% and -6%
O=C1Nc2ccc(C(=O)c3ccco3)cc2C1=Cc1cc(Cl)c(O)c(Cl)c1	92% and 91%	-8% and -7%
Cc1ccc2c(-c3ccnc(Nc4ccc5c(c4)OCCO5)n3)c(-c3ccc(C(F)(F)F)cc3)nn2n1	0% and -3%	-1% and -5%
N#Cc1ccc2c(-c3ccnc(NC4CC4)n3)c(-c3ccc(F)cc3)nn2c1	1%	4% and -1%
CCn1c(-c2nonc2N)nc2cncc(C(=O)NCCNC)c21	13% and 14%	1% and -2%
Fc1ccc(-c2c(-c3ccncc3)nc3n2CCS3)cc1	-1% and 0%	0% and -2%
CC(=O)Nc1cccc(C#Cc2cncnc2Nc2ccc(OCc3cccc(F)c3)c(Cl)c2)c1	-7% and -6%	-2% and 0%
COc1cc2ncn(-c3cc(O[C@H](C)c4ccccc4Cl)c(C(N)=O)s3)c2cc1OC	3% and 2%	0% and -8%
COc1cc2ncn(-c3cc(OCCc4ccccc4)c(C(N)=O)s3)c2cc1OC	10% and 11%	8% and 3%
CN(C)c1cc2c(Nc3ccc4c(cnn4Cc4ccccc4)c3)ncnc2cn1	-2%	-3% and -2%
COc1cccc(-n2ncc3c(N/N=C/c4ccc(C(=O)NCCN(C)C)cc4)ncnc32)c1	29% and 27%	-5% and -6%
COc1ccccc1Nc1ncc(-c2ccccc2)o1	5%	3% and 0%
COc1cccc(COc2cc(-n3cnc4ccccc43)sc2C(N)=O)c1	-1%	-5% and -4%
CCNC(=O)O[C@H]1CN[C@H](C#Cc2cc3ncnc(Nc4ccc(OCc5cccc(F)c5)c(Cl)c4)c3s2)C1	1% and 3%	-5% and -3%
N#Cc1ccc(Oc2nccc(-c3c(-c4ccc(F)cc4)ncn3C3CCNCC3)n2)cc1	2% and 4%	-2% and -1%
C/C(Nc1ccc(S(N)(=O)=O)cc1)=C1/C(=O)Nc2ccccc21	5% and 6%	-3% and -2%
CNC(=O)c1cncc(/C=C/c2c(C)cccc2C)c1	0% and -1%	1% and -2%
Cc1cc(-c2ccccn2)cc(C)c1/C=C/c1cncc(-c2nn[nH]n2)c1	-1% and -2%	-5% and -2%
CS(=O)(=O)CCNCc1coc(-c2ccc3ncnc(Nc4ccc(OCc5ccccc5)cc4)c3c2)c1	-1% and 0%	0% and -1%
Cc1ccc(NC(=O)c2ccoc2)cc1-c1ccc(C(=O)NCC2CC2)cc1	1%	-5%
CS(=O)(=O)CCNCc1cc(-c2cc3c(Nc4ccc(OCc5cccc(F)c5)c(Cl)c4)ncnc3s2)cs1	0% and 2%	-8% and 5%

Next, values leading:

inhibition [1]	inhibition [2]	Compound
-2% and 0%	7% and -3%	Nc1ccc(C#Cc2cncnc2Nc2ccc(OCc3cccc(F)c3)c(Cl)c2)cc1
-2%	-1% and -3%	N#Cc1c(NC(=O)CN2CCOCC2)sc2c1CCCC2
-1% and 0%	0% and -1%	CN(C)CCOc1ccc(-c2nc(-c3ccncc3)c(-c3ccc4c(c3)CC/C4=N\O)[nH]2)cc1
1% and -4%	1% and 0%	O=C(O[C@H]1CN[C@H](C#Cc2cc3ncnc(Nc4ccc5c(ccn5Cc5cc(F)ccc5F)c4)c3s2)C1)N1CCOCC1
1% and 0%	-2% and -1%	NC(=O)c1ccc2c(-c3ccnc(NCCCO)n3)c(-c3ccc(F)cc3)nn2c1
-1% and 0%	-4% and -10%	c1ccc(-c2n[nH]cc2-c2ccnc(-c3ccc(OCCN4CCOCC4)cc3)c2)nc1
1% and 0%	-7% and 0%	CC1=C(C(=O)Nc2cc(Cl)c3[nH]ncc3c2)C(c2ccc(C(F)(F)F)cc2)CC(=O)N1 (centres undefined)
2% and 3%	-1% and 2%	CCN(CC)S(=O)(=O)c1ccc(OC)c(Nc2ncc(-c3ccccc3)o2)c1
3%	3% and 0%	CCS(=O)(=O)c1ccc(OC)c(Nc2ncc(-c3cccc(OC)c3)o2)c1
85%	-3% and -2%	NS(=O)(=O)c1ccc(NC=C2C(=O)Nc3ccc4ncsc4c32)cc1
1%	-1% and 4%	COc1ccc2ncnc(Nc3ccc(OCc4ccccc4)cc3)c2c1
-2% and -1%	-3% and -4%	CCc1nn2ncccc2c1-c1ccnc(NC2CC2)n1
22% and 26%	-4% and -1%	NS(=O)(=O)c1cccc(N/C=C2\C(=O)Nc3ccccc32)c1
2% and 0%	-2% and -3%	CCOc1nccc2c1nc(-c1nonc1N)n2CC
-1% and 0%	-4% and -3%	COc1cc(N2CCN(C(C)C)CC2)ccc1Nc1nc(Nc2cccc(F)c2C(=O)O)c2cc[nH]c2n1
99% and 98%	-3% and -4%	CCn1c(-c2nonc2N)nc2c(C#CC(C)(C)O)nc(O[C@@H](CN)c3ccccc3)cc21
39% and 41%	-2%	NS(=O)(=O)c1ccc(N/N=C2\C(=O)Nc3ccc(-c4cnco4)cc32)cc1
2%	-2% and 0%	Cc1nnc(-c2ccc(C)c(-c3ccc(C(=O)NCc4ccc(Cl)cc4)cc3)c2)o1
-1%	-4% and -2%	Fc1ccc(-c2cc(-c3c[nH]nc3-c3ccccn3)ccn2)cc1
-3% and -1%	-3%	Fc1ccc(-c2ncn(C3CCNCC3)c2-c2ccnc(Oc3ccc(F)c(F)c3)n2)cc1
